The series is described as follows: Radioactive decay of the isotopes. Format: physicochemical. To be noted: at day 30, from half-life.

Turning to `[177Lu]` [Lu-177, lutetium-177], the “radioactive isotope expected to remain in the subject” value is on record as “less than 6.25%”.
The entry for `[166Ho]` [Ho-166, holmium-166] is “less than 0.20%”.

These data come from patent US20110184418A1, “Unsealed, Non-Colloidal Radiopharmaceutical Compositions and Methods for Treatment of Abnormal Tissue” (priority 2009, published 2011).
